Reference: patent US8173680B2, “Cannabinoid receptor modulators” (7TM Pharma A/S, priority 2007, dated 2012)

Biological target: T1, human CB1 receptor (Homo sapiens, UniProt P21554)
T1 construct: expressed in transfected cells; membrane preparation
Assay: Cannabinoid Receptor-1 functional assay: inhibition of CP55940-induced [35S]GTPγS binding to membranes from CHO-K1 cells expressing the human CB1 receptor
Assay type: biochemical
Details: antagonizing CB1 receptor agonist CP55940 (3 nM), [35S]GTPγS SPA, read-out: Antagonism IC50
Source text: Transfection and Cell Culture—The cDNA encoding the human CB1 (Cannabinoid Receptor-1) receptor (GenBank accession number NM_016083) was cloned from a human adipose tissue cDNA library and cloned into the eukaryotic expression vector pcDNA3.1 (Invitrogen).
Chinese Hamster Ovary cells (CHO-K1) stably expressing recombinant human CB1 receptors were generated by transfecting the plasmid containing the coding sequence of the human CB1 receptor in CHO-K1 cells, using lipofectamine, according to the manufacturers instructions. Resistant clones were selected in the presence of 600 μg/ml G418 (Life technology). Stably transfected CHO-K1 cells were maintained in Ham's F-12 culture medium (Invitrogen), supplemented with 10% fetal calf serum (Invitrogen), 100 U/ml penicillin, 100 μg/ml streptomycin (Life Technology), and 600 μg/ml G418.
Cannabinoid Receptor-1 Functional Assay.
Functional activities of the above examples of compounds of the invention were assessed in vitro by measuring their ability to inhibit CP55940-induced [^35S]GTPγS binding to membranes prepared from CHO-K1 cells expressing the human CB1 receptor (described in Transfection and Cell Culture). CP55940 is a well known non-selective CB1 and CB2 receptor agonist (e.g Felder et al., 1995, Molecular Pharmacology, (48) 443-50). Membranes were prepared by a standard procedure. Briefly, cells were harvested using 10 mM EDTA and collected by centrifugation. Pelleted cells were homogenized in ice-cold 20 mM Hepes (pH 7.4), 10 mM EDTA and protease inhibitors (Complete protease inhibitor cocktail tablet, Roche) using an Ultra Turrax Homogenizer. The homogenate was centrifuged at 14 000 rpm for 45 min. at 4° C. The resultant pellet was resuspended in the same buffer but with only 0.1 mM EDTA and was again centrifuged at 14 000 rpm for 45 min. at 4° C. The resulting pellet (membranes) was resuspended in 20 mM Hepes (pH 7.4), 0.1 mM EDTA, 2 mM MgCl2 and protease inhibitors and protein concentration was determined by Micro BCA Protein Assay Reagent Kit (Pierce Biotechnology) according to the manufacturers instructions. The [^35S]GTPγS SPA (Scintillation Proximity Assay) binding assay was performed by incubating 5 μg/well membranes prepared from CHO-K1 cells expressing the human CB1 receptor with 1 nM [^35S]GTPγS (Perkin Elmer—NEG 030H) in the presence of 3 nM of CP55940 and various concentrations of the test compounds at room temperature for 1 hr in 96-well microtiter plates. 0.4 mg/well SPA beads (PVT-WGA; RPNQ0001 Amersham Pharmacia Biotech) were then added and the incubation continued for further 30 min. on an orbital shaker. The assay buffer contained 50 mM HEPES (pH 7.5), 50 mM NaCl, 2.5 mM MgCl2, 0.1% BSA, 1 μM GDP and 100 μg/ml Saponin. Microtiter plates were centrifuged at 1500 rpm for 5 min. and radioactivity was read immediately using a Topcounter (PerkinElmer Life Sciences). Data were analyzed and IC50 values determined by non-linear regression analysis using the Prism software (GraphPad Software, San Diego).

T1 sequence (P21554 whole entry): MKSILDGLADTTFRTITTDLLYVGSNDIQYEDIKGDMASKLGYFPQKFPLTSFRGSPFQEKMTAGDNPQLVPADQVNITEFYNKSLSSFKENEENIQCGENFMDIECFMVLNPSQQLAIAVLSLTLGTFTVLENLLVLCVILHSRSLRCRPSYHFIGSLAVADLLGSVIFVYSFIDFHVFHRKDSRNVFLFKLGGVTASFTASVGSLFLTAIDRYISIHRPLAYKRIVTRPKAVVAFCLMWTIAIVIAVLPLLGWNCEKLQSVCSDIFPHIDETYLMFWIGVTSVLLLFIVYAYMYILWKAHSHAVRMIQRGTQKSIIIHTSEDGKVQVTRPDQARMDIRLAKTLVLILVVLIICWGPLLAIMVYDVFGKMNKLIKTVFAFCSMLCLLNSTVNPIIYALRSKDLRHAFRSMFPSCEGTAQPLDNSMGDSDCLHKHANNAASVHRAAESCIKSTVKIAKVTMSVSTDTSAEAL

| Compound | IC50 [nM] |
| --- | --- |
| 1-(2-Chloro-phenyl)-5-(4-chloro-phenyl)-4-(5-oxo-4,5-dihydro-[1,3,4]oxadiazol-2-ylmethyl)-1H-pyrazole-3-carboxylic acid ((R)-1-p-tolyl-ethyl)-amide [Compound 2.02] | < 500 |
| O=C(c1nn(-c2ccccc2Cl)c(-c2ccc(Cl)cc2)c1Cc1n[nH]c(=O)o1)N1CCC(c2ccccc2F)CC1 [Compound 2.01, 5-{5-(4-Chloro-phenyl)-1-(2-chloro-phenyl)-3-[4-(2-fluoro-phenyl)-piperidine-1-carbonyl]-1H-pyrazol-4-ylmethyl}-3H-[1,3,4]oxadiazol-2-one] | < 500 |
| C[C@H](c1ccc(C(F)(F)F)cc1)N(C)C(=O)c1nn(-c2ccccc2Cl)c(-c2ccc(Cl)cc2)c1CC(=O)NC#N [Compound 4.02, (1-(2-Chloro-phenyl)-5-(4-chloro-phenyl)-3-{methyl-[(R)-1-(4-trifluoromethyl-phenyl)-ethyl]-carbamoyl}-1H-pyrazol-4-yl)-N-cyano-acetamide] | < 500 |
| C[C@H](c1ccc(C(F)(F)F)cc1)N(C)C(=O)c1nn(-c2ccccc2Cl)c(-c2ccc(Cl)cc2)c1C1CC(=O)NC1=O (stereo partly drawn) [Compound 5.01, 1-(2-Chloro-phenyl)-5-(4-chloro-phenyl)-4-(2,5-dioxo-pyrrolidin-3-yl)-1H-pyrazole-3-carboxylic acid methyl-[(R)-1-(4-trifluoromethyl-phenyl)-ethyl]-amide] | < 500 |
| O=C1NC(=O)C(Cc2c(C(=O)N3CCC(c4ccccc4F)CC3)nn(-c3ccccc3Cl)c2-c2ccc(Cl)cc2)N1 (centres unmarked) [Compound 6.01, 5-{1-(2-Chloro-phenyl)-5-(4-chloro-phenyl)-3-[4-(2-fluoro-phenyl)-piperidine-1-carbonyl]-1H-pyrazol-4-ylmethyl}-imidazolidine-2,4-dione] | < 500 |

The remaining lines, values ahead:

| IC50 [nM] | Compound |
| --- | --- |
| < 500 | C[C@@H](NC(=O)c1nn(-c2ccccc2Cl)c(-c2ccc(Cl)cc2)c1Cc1noc(=O)[nH]1)c1ccc(C(F)(F)F)cc1 [Compound 1.01, 5-(4-Chloro-phenyl)-1-(2-chloro-phenyl)-4-(5-oxo-4,5-dihydro-[1,2,4]oxadiazol-3-ylmethyl)-1H-pyrazole-3-carboxylic acid [(R)-1-(4-trifluoromethyl-phenyl)-ethyl]-amide] |
| < 500 | CS(=O)(=O)NC(=O)Cc1c(C(=O)N2CCC(c3ccccc3F)CC2)nn(-c2ccccc2Cl)c1-c1ccc(Cl)cc1 [Compound 3.01, N-(2-{1-(2-Chloro-phenyl)-5-(4-chloro-phenyl)-3-[4-(2-fluoro-phenyl)-piperidine-1-carbonyl]-1H-pyrazol-4-yl}-acetyl)-methanesulfonamide] |
| < 500 | C[C@H](c1ccc(C(F)(F)F)cc1)N(C)C(=O)c1nn(-c2ccccc2Cl)c(-c2ccc(Cl)cc2)c1CC(=O)NS(C)(=O)=O [Compound 3.02, 1-(2-Chloro-phenyl)-5-(4-chloro-phenyl)-4-(2-methanesulfonylamino-2-oxo-ethyl)-1H-pyrazole-3-carboxylic acid methyl-[(R)-1-(4-trifluoromethyl-phenyl)-ethyl]-amide] |
| < 500 | N#CNC(=O)Cc1c(C(=O)N2CCC(c3ccccc3F)CC2)nn(-c2ccccc2Cl)c1-c1ccc(Cl)cc1 [Compound 4.01, 2-{1-(2-Chloro-phenyl)-5-(4-chloro-phenyl)-3-[4-(2-fluoro-phenyl)-piperidine-1-carbonyl]-1H-pyrazol-4-yl}-N-cyano-acetamide] |
| < 500 | N#CNC(=O)Cc1c(C(=O)N2CCC(Oc3cc(F)cc(F)c3)CC2)nn(-c2ccccc2Cl)c1-c1ccc(Cl)cc1 [Compound 4.03, {1-(2-Chloro-phenyl)-5-(4-chloro-phenyl)-3-[4-(3,5-difluoro-phenoxy)-piperidine-1-carbonyl]-1H-pyrazol-4-yl}-N-cyano-acetamide] |
| < 500 | C[C@@H](NC(=O)c1nn(-c2ccccc2Cl)c(-c2ccc(Cl)cc2)c1CC1NC(=O)NC1=O)c1ccc(C(F)(F)F)cc1 (some centres unmarked) [Compound 6.02] |
